Laboratory results reported in US20160046618A1, “Cyclopropyl Fused Thiazin-2-Amine Compounds as Beta-Secretase Inhibitors and Methods of Use” (AMGEN INC., priority 2014, published 2016).
Where two headings read alike, the source gives them in different places.

Tests used:
human recombinant BACE2 = human recombinant BACE2 (Homo sapiens (Human), UniProt Q9Y5Z0); assay: In vitro enzymatic BACE2 FRET assay; format: biochemical; conditions: read-out: IC50 IP (μM) BACE2 enzyme
Method in brief: (§1)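 Protease purified by Ni-NTA chromatography; start with FRET substrate (50 nM); incubate 1 h; quench with Tris to neutral pH; read fluorescence ex 488 / em 590 nm.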

[1] = test system: Aβ40 in conditioned medium of cells stably expressing Amyloid Precursor Protein (APP); assay: In vitro BACE-1 cell-based assay (Aβ40 sandwich ELISA); conditions: read-out: IC50 IP (μM) BACE1 cell
Method in brief: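 APP-expressing cells treated 24 h at 37 °C with compound in 10-point dose response (top 100 μM or 10 μM, 0.1% DMSO final). Secreted Aβ40 in conditioned medium quantified by sandwich ELISA (pAb40 capture, biotinylated 6E10 detection, time-resolved europium fluorescence); IC50 from percent inhibition versus concentration.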

Recombinant Cat D = Recombinant Cat D (Homo sapiens (Human), UniProt P07339); assay: In vitro enzymatic Cathepsin D (Cat D) FRET assay; format: biochemical; conditions: read-out: IC50 IP (μM) CatD
Method in brief: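 Cleavage of a 20 nM fluorophore/quencher peptide by CHO-expressed recombinant Cat D proceeded for one hour at pH 3.5 (0.05 M citrate, 5 mM CHAPS, 10% DMSO final). Tris addition neutralized the pH to end the reaction. Fluorescence was then measured (ex 500 nm/em 580 nm).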

human recombinant BACE1 = human recombinant BACE1 (Homo sapiens (Human), UniProt P56817); assay: In vitro enzymatic BACE1 FRET assay; format: biochemical; conditions: read-out: IC50 IP (μM) BACE1 enzyme
Method in brief: as §1

Chain of human recombinant BACE2 (Q9Y5Z0 63-518): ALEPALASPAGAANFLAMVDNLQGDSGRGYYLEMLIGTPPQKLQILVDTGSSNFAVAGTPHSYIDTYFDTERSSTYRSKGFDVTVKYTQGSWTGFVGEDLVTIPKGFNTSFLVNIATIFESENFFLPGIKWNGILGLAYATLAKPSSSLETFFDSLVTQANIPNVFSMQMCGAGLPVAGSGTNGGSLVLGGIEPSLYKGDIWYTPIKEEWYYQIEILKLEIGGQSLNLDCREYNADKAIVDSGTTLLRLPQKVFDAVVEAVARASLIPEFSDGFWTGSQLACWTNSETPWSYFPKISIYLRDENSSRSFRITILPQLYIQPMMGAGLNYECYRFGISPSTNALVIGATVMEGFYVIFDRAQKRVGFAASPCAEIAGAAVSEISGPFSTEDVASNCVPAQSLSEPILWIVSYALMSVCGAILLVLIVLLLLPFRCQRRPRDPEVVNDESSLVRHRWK
Chain of human recombinant BACE1 (P56817 46-501): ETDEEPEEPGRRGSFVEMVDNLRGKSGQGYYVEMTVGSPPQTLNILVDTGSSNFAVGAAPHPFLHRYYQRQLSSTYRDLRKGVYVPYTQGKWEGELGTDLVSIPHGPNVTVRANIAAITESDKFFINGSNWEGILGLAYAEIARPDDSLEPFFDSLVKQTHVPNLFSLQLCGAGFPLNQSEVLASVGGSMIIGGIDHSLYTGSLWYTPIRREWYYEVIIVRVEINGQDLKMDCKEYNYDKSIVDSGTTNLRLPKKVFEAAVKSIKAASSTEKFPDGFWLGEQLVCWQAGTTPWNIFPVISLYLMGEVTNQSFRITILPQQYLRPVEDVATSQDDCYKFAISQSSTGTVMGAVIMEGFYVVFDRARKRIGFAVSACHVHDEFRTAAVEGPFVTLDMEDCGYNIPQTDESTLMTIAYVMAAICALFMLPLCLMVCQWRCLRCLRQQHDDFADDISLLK
Chain of Recombinant Cat D (P07339 65-412): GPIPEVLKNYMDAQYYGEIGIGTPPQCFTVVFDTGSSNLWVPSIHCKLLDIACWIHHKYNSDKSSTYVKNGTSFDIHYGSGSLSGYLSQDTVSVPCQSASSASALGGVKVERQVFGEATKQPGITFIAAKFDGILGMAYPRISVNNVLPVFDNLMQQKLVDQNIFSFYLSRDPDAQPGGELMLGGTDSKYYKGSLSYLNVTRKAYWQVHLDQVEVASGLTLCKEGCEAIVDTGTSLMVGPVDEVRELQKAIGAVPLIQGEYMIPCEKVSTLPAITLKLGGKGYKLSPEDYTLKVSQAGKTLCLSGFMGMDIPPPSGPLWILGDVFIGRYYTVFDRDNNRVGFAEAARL

Row | Structure (SMILES) | IC50 (human recombinant BACE2; BACE2 FRET enzyme assay) [µM] | IC50 ([1]; BACE1 cell-based assay) [µM] | IC50 (Recombinant Cat D; Cathepsin D FRET enzyme assay) [µM] | IC50 (human recombinant BACE1; BACE1 FRET enzyme assay) [µM] | IC50 (human recombinant BACE2) [µM] | IC50 [1] [µM] | IC50 (Recombinant Cat D) [µM] | IC50 (human recombinant BACE1) [µM]
1 | C#CCOc1cnc(C(=O)Nc2ccc(F)c([C@@]3(C)N=C(N)S[C@@H]4[C@H]3C4(F)F)c2)c(C)n1 [Example 102, N-(3-((1R,5S,6R)-3-amino-7,7-difluoro-5-methyl-2-thia-4-azabicyclo[4.1.0]hept-3-en-5-yl)-4-fluorophenyl)-3-methyl-5-(prop-2-yn-1-yloxy)pyrazine-2-carboxamide] | 0.019 | 0.058 | 361 | 0.00433 | – | – | – | –
2 | CC(=O)[C@]12C[C@H]1[C@@](C)(c1cc(NC(=O)c3ccc(Cl)cn3)cc(F)c1F)N=C(N)S2 [Example 906, N-(3-((1S,5S,6S)-1-acetyl-3-amino-5-methyl-2-thia-4-azabicyclo[4.1.0]hept-3-en-5-yl)-4,5-difluorophenyl)-5-chloro-2-pyridinecarboxamide] | – | – | – | – | 0.00174 | 0.014 | 693 | 0.00404
3 | Cc1cnc(COc2cnc3c(Nc4cc(F)c(F)c([C@@]5(C)N=C(N)S[C@@]6(C(F)F)C[C@@H]56)c4)nccc3n2)o1 [Example 888, N-(3-((1S,5S,6S)-3-amino-1-(difluoromethyl)-5-methyl-2-thia-4-azabicyclo[4.1.0]hept-3-en-5-yl)-4,5-difluorophenyl)-2-((5-methyl-1,3-oxazol-2-yl)methoxy)pyrido[3,4-b]pyrazin-5-amine] | – | – | – | – | 0.0581 | 0.0218 | 71.9 | 0.00209
4 | CC(C)(C)NC(=O)[C@]12C[C@H]1[C@@](C)(c1cc(NC(=O)c3cnc(OCC(F)(F)F)cn3)ccc1F)N=C(N)S2 [Example 1002, (1S,5S,6S)-3-amino-N-tert-butyl-5-(2-fluoro-5-(((5-(2,2,2-trifluoroethoxy)-2-pyrazinyl)carbonyl)amino)phenyl)-5-methyl-2-thia-4-azabicyclo[4.1.0]hept-3-ene-1-carboxamide] | – | – | – | – | 0.165 | 0.00484 | 82.7 | 0.00177
5 | C#CCOc1cnc2c(Nc3cc(F)c(F)c([C@@]4(C)N=C(N)S[C@H]5C[C@H]54)c3)nccc2c1 [Example 32, N-(3-((1S,5S,6S)-3-amino-5-methyl-2-thia-4-azabicyclo[4.1.0]hept-3-en-5-yl)-4,5-difluorophenyl)-3-(2-propyn-1-yloxy)-1,7-naphthyridin-8-amine] | 0.304 | 0.0836 | 138 | 0.0212 | – | – | – | –
6 | C[C@]1(c2cc(NC(=O)c3ccc(Cl)cn3)cc(F)c2F)N=C(N)S[C@@H]2[C@H]1C2(F)F [Example 748, N-(3-((1R,5S,6R)-3-amino-7,7-difluoro-5-methyl-2-thia-4-azabicyclo[4.1.0]hept-3-en-5-yl)-4,5-difluorophenyl)-5-chloro-2-pyridinecarboxamide] | – | – | – | – | 0.00284 | 0.597 | 129 | 0.00807
7 | CC(C)(C)NC(=O)[C@]12C[C@H]1[C@@](C)(c1cc(NC(=O)c3ccc(C#N)cn3)ccc1F)N=C(N)S2 [Example 986, (1S,5S,6S)-3-amino-N-tert-butyl-5-(5-(((5-cyano-2-pyridinyl)carbonyl)amino)-2-fluorophenyl)-5-methyl-2-thia-4-azabicyclo[4.1.0]hept-3-ene-1-carboxamide] | – | – | – | – | 0.00598 | 0.00141 | 172 | 0.00113
8 | C#C[C@H](C)Oc1cnc(C(=O)Nc2cc(F)c(F)c([C@@]3(C)N=C(N)S[C@@]4(C#N)C[C@H]43)c2)cn1 [Example 1011, N-(3-((1S,5S,6S)-3-amino-1-cyano-5-methyl-2-thia-4-azabicyclo[4.1.0]hept-3-en-5-yl)-4,5-difluorophenyl)-5-(((1S)-1-methyl-2-propyn-1-yl)oxy)-2-pyrazinecarboxamide] | – | – | – | – | 0.00908 | 0.00353 | 741 | 0.000465
9 | C#CCOc1cnc(C(=O)Nc2ccc(F)c([C@@]3(CF)N=C(N)S[C@@]4(COCC(F)(F)F)C[C@H]43)c2)cn1 [Example 953, N-(3-((1S,5S,6S)-3-amino-5-(fluoromethyl)-1-((2,2,2-trifluoroethoxy)methyl)-2-thia-4-azabicyclo[4.1.0]hept-3-en-5-yl)-4-fluorophenyl)-5-(2-propyn-1-yloxy)-2-pyrazinecarboxamide] | – | – | – | – | 0.0267 | 0.00149 | 61.9 | 0.00028
10 | C[C@]1(c2cc(NC(=O)c3ccc(OCC(F)(F)F)cn3)ccc2F)N=C(N)S[C@@]2(C(F)F)C[C@@H]12 [Example 696, N-(3-((1S,5S,6S)-3-amino-1-(difluoromethyl)-5-methyl-2-thia-4-azabicyclo[4.1.0]hept-3-en-5-yl)-4-fluorophenyl)-5-(2,2,2-trifluoroethoxy)-2-pyridinecarboxamide] | – | – | – | – | 0.324 | 0.0707 | 846 | 0.0062
11 | [2H]C([2H])([2H])C#CC([2H])([2H])Oc1cnc2c(Nc3cnc(F)c([C@@]4(C)N=C(N)S[C@@]5(CF)C[C@H]54)c3)nccc2n1 [Example 613, N-(5-((1S,5S,6S)-3-amino-1-(fluoromethyl)-5-methyl-2-thia-4-azabicyclo[4.1.0]hept-3-en-5-yl)-6-fluoro-3-pyridinyl)-2-((~2~H_5_)-2-butyn-1-yloxy)pyrido[3,4-b]pyrazin-5-amine] | – | – | – | – | 0.0123 | 0.00098 | 709 | 0.000555
12 | C#CCOc1cnc2c(Nc3cnc(OC)c([C@@]4(C)N=C(N)S[C@@]5(CF)C[C@H]54)c3)ncnc2c1 [Example 625, N-(5-((1S,5S,6S)-3-amino-1-(fluoromethyl)-5-methyl-2-thia-4-azabicyclo[4.1.0]hept-3-en-5-yl)-6-methoxy-3-pyridinyl)-7-(2-propyn-1-yloxy)pyrido[3,2-d]pyrimidin-4-amine] | – | – | – | – | 0.401 | 0.014 | 730 | 0.0309

Second part, the compound after the results:

Row | IC50 (human recombinant BACE2; BACE2 FRET enzyme assay) [µM] | IC50 ([1]; BACE1 cell-based assay) [µM] | IC50 (Recombinant Cat D; Cathepsin D FRET enzyme assay) [µM] | IC50 (human recombinant BACE1; BACE1 FRET enzyme assay) [µM] | IC50 (human recombinant BACE2) [µM] | IC50 [1] [µM] | IC50 (Recombinant Cat D) [µM] | IC50 (human recombinant BACE1) [µM] | Structure (SMILES)
13 | – | – | – | – | 0.00428 | 0.000298 | 21.2 | 0.000199 | C#CCOc1cnc(C(=O)Nc2cc(F)c(F)c([C@@]3(C)N=C(N)S[C@@]4(C(N)=O)C[C@H]43)c2)cn1 [Example 919, (1S,5S,6S)-3-amino-5-(2,3-difluoro-5-(((5-(2-propyn-1-yloxy)-2-pyrazinyl)carbonyl)amino)phenyl)-5-methyl-2-thia-4-azabicyclo[4.1.0]hept-3-ene-1-carboxamide]
14 | – | – | – | – | 0.0361 | 0.00235 | 1680 | 0.000589 | C#CCOc1cnc2c(Nc3cnc(F)c([C@@]4(C)N=C(N)S[C@@]5(CF)C[C@H]54)c3)nccc2n1 [Example 601, N-(5-((1S,5S,6S)-3-amino-1-(fluoromethyl)-5-methyl-2-thia-4-azabicyclo[4.1.0]hept-3-en-5-yl)-6-fluoro-3-pyridinyl)-2-(2-propyn-1-yloxy)pyrido[3,4-b]pyrazin-5-amine]
15 | – | – | – | – | 0.0397 | 0.0012 | 316 | 0.000846 | C#CCOc1cnc2c(Nc3ccc(F)c([C@@]4(C)N=C(N)S[C@@]5(C(=O)NC6CC6)C[C@H]54)c3)nccc2n1 [Example 794, (1S,5S,6S)-3-amino-N-cyclopropyl-5-(2-fluoro-5-((2-(2-propyn-1-yloxy)pyrido[3,4-b]pyrazin-5-yl)amino)phenyl)-5-methyl-2-thia-4-azabicyclo[4.1.0]hept-3-ene-1-carboxamide]
16 | – | – | – | – | < 0.00203 | 0.000971 | 134 | 0.00075 | C[C@]1(c2cc(NC(=O)c3ccc(Cl)cn3)ccc2F)N=C(N)S[C@@]2(C(=O)NC3CC3)C[C@H]21 [Example 792, (1S,5S,6S)-3-amino-5-(5-(((5-chloro-2-pyridinyl)carbonyl)amino)-2-fluorophenyl)-N-cyclopropyl-5-methyl-2-thia-4-azabicyclo[4.1.0]hept-3-en-1-carboxamide]
17 | – | – | – | – | 0.211 | 0.013 | 865 | 0.00656 | COC[C@]12C[C@H]1[C@@](C)(c1cc(NC(=O)c3ncc(OCc4ncco4)cc3C)cc(F)c1F)N=C(N)S2 [Example 646, N-(3-((1S,5S,6S)-3-amino-1-(methoxymethyl)-5-methyl-2-thia-4-azabicyclo[4.1.0]hept-3-en-5-yl)-4,5-difluorophenyl)-3-methyl-5-(1,3-oxazol-2-ylmethoxy)-2-pyridinecarboxamide]
18 | – | – | – | – | 0.017 | 0.0072 | 129 | 0.000598 | C#CCOc1cnc(C(=O)Nc2cc(F)c(F)c([C@@]3(C)N=C(N)S[C@@]4(COC)C[C@H]43)c2)c(C)n1 [Example 862, N-(3-((1S,5S,6S)-3-amino-1-(methoxymethyl)-5-methyl-2-thia-4-azabicyclo[4.1.0]hept-3-en-5-yl)-4,5-difluorophenyl)-3-methyl-5-(2-propyn-1-yloxy)-2-pyrazinecarboxamide]
